Converted amounts (≈) assume the structure as drawn. “And” between values parts separate entries of the source, which are not always exact repeats. Equal values may be shown once. Read-outs that look alike come from different tables or passages of the source.
What was measured:
[1] = target: T1, PKCη (Homo sapiens, UniProt P24723); experiment: scanMax kinome panel, PKCη; assay type: binding; conditions: 200 nM CP612; read-out: scanMax % of control, PKCη
T1 construct: purchased Eurofins-DiscoverX
T1 sequence (P24723 whole entry): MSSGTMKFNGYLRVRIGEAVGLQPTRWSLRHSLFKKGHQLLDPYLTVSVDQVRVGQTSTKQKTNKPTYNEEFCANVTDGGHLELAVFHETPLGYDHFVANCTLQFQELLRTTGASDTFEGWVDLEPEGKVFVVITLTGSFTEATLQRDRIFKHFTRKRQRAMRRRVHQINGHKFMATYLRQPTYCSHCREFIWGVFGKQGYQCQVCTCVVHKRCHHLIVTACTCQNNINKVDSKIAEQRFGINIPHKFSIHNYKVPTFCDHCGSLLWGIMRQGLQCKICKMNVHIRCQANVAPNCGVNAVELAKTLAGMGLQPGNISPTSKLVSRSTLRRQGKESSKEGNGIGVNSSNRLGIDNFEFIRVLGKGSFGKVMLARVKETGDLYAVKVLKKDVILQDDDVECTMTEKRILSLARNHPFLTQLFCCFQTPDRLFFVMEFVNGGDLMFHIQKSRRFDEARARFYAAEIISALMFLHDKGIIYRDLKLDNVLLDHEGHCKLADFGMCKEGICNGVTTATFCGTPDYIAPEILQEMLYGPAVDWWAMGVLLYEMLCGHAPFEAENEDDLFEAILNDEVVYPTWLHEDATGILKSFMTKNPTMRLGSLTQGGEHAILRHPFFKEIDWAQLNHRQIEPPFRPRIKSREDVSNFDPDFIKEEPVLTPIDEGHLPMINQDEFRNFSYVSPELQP
Method: CP612 was screened for kinome specificity at 200 nM against 468 kinases using the scanMax assay panel from Eurofins-DiscoverX. CP612 inhibited 10 other WT kinases besides PKCε, all to < 10% of control: CLK1 (CDC Like Kinase 1), CLK4, PKN1 (Protein kinase N1), PKN2, PKCδ, PKCη, PKCθ, PRKG2 (Protein Kinase CGMP-Dependent 2), ROCK1, and ROCK2.

[2] = Kinetic aqueous solubility; assay type: physicochemical
Method: Kinetic aqueous solubility. Test compounds were diluted 100-fold from 1 mM DMSO stocks into 0.1M phosphate-buffered saline (PBS) in triplicate. Diluted samples were shaken at room temperature at 600 rpm for 3 hours and then filtered by centrifugation (0.2 μm, PVDF) at 1,000g for 1 minute. Aliquots of 100 μL were diluted into 3 volumes of acetonitrile for extraction, vortexed for 15 seconds, centrifuged at 16,000g for 10 minutes at 4°C, and then analyzed by liquid chromatography–mass spectrometry (LC-MS).

[3] = system: morphine self-administration;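 also: rats trained to self-administer intravenous morphine at 500 µg/kg per infusion, first under FR1 then FR3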

N[C@H](CNC(=O)C1(c2ccc(Cl)cc2)CCCC1)c1ccc(C(=O)Nc2ccncc2)cc1 [CP612]
remaining binding at 0.2 µM [1]: < 10%
solubility kinetic at 3 h ([2]; 0.1M phosphate-buffered saline (PBS), aqueous buffer, kinetic from dmso stock, 0.1M PBS, room temperature, 3 hours, read-out: Kinetic aqueous solubility): 7410 ± 120 nM (≈ 3.43 µg/mL)
solubility kinetic at 3 h ([2]; 0.1M phosphate-buffered saline (PBS), aqueous buffer, kinetic from dmso stock, mean of 3 samples, read-out: Kinetic aqueous solubility, Corrected (nM), Mean): 7410 nM (≈ 3.43 µg/mL)
solubility kinetic at 3 h ([2]; 0.1M phosphate-buffered saline (PBS), aqueous buffer, kinetic from dmso stock, single sample, read-out: Kinetic aqueous solubility, Corrected): 7540 nM (≈ 3.49 µg/mL)
solubility kinetic at 3 h ([2]; single sample, read-out: Kinetic aqueous solubility, Corrected): 7309.08 nM and 7388.24 nM
D10 BP (PR1) ([3]; BP, Day 10, progressive ratio PR1, CP612 6 hours prior, group mean, n=7): 25.57
D12 BP (PR2_WD) ([3]; BP, Day 12, progressive ratio PR2 withdrawal, CP612 6 hours prior, group mean, n=6): 21.67
D13 BP (PR3_Nal) ([3]; BP, Day 13, progressive ratio PR3_Nal, CP612 6 hours prior, group mean, n=7): 17.57
D12 BP (PR2_WD) ([3]; BP, PR2_WD, day 12, individual rats): 40 and 15 and 20
Effect on morphine intake or responding (infusions and breaking point) ([3]; CP612 30 mg/kg i.p. 6 hours prior, progressive ratio tests 1-3): did not modify morphine intake or responding
D1 AH (FR1) ([3]; active hole responses, Day 1, fixed ratio 1, mean of CP612 group, n=7): 16.14
D2 AH (FR1) ([3]; active hole responses, Day 2, fixed ratio 1, mean of CP612 group, n=7): 13.86
D3 AH (FR1) ([3]; active hole responses, Day 3, fixed ratio 1, mean of CP612 group, n=7): 16.29
D4 AH (FR1) ([3]; active hole responses, Day 4, fixed ratio 1, mean of CP612 group, n=7): 14.57
D4 AH (FR3) ([3]; active hole responses, Day 4, fixed ratio 3, mean of CP612 group, n=7): 14.57
D5 AH (FR3) ([3]; active hole responses, Day 5, fixed ratio 3, mean of CP612 group, n=7): 25.86
D6 AH (FR3) ([3]; active hole responses, Day 6, fixed ratio 3, mean of CP612 group, n=7): 25.71
D7 AH (FR3) ([3]; active hole responses, Day 7, fixed ratio 3, mean of CP612 group, n=7): 27.86
D8 AH (FR3) ([3]; active hole responses, Day 8, fixed ratio 3, mean of CP612 group, n=7): 35.00
D9 AH (FR3) ([3]; active hole responses, Day 9, fixed ratio 3, mean of CP612 group, n=7): 37.86
D10 AH (PR1) ([3]; active hole responses, Day 10, PR1, CP612 6 hours prior, group mean, n=7): 119.00
D12 AH (PR2_WD) ([3]; active hole responses, Day 12, PR2 withdrawal, CP612 6 hours prior, group mean, n=6): 99.33
D13 AH (PR3_Nal) ([3]; active hole responses, Day 13, PR3_Nal, CP612 6 hours prior, group mean, n=7): 78.29
AH (avg all) ([3]; active hole responses, average of all days D1-D9, mean of CP612 group, n=7): 23.68
AH (avg last 3 days) ([3]; active hole responses, average of last 3 days, mean of CP612 group, n=7): 33.57
D1 IH (FR1) ([3]; inactive hole responses, Day 1, fixed ratio 1, mean of CP612 group, n=7): 7.43
D2 IH (FR1) ([3]; inactive hole responses, Day 2, fixed ratio 1, mean of CP612 group, n=7): 12.14
D3 IH (FR1) ([3]; inactive hole responses, Day 3, fixed ratio 1, mean of CP612 group, n=7): 12.43
D4 IH (FR1) ([3]; inactive hole responses, Day 4, fixed ratio 1, mean of CP612 group, n=7): 8.71
D4 IH (FR3) ([3]; inactive hole responses, Day 4, fixed ratio 3, mean of CP612 group, n=7): 8.71
D5 IH (FR3) ([3]; inactive hole responses, Day 5, fixed ratio 3, mean of CP612 group, n=7): 13.86
D6 IH (FR3) ([3]; inactive hole responses, Day 6, fixed ratio 3, mean of CP612 group, n=7): 7.43
D7 IH (FR3) ([3]; inactive hole responses, Day 7, fixed ratio 3, mean of CP612 group, n=7): 4.57
D8 IH (FR3) ([3]; inactive hole responses, Day 8, fixed ratio 3, mean of CP612 group, n=7): 6.43
D9 IH (FR3) ([3]; inactive hole responses, Day 9, fixed ratio 3, mean of CP612 group, n=7): 5.57
D10 IH (PR1) ([3]; inactive hole responses, Day 10, PR1, CP612 6 hours prior, group mean, n=7): 13.00
D12 IH (PR2_WD) ([3]; inactive hole responses, Day 12, PR2 withdrawal, CP612 6 hours prior, group mean, n=6): 10.67
D13 IH (PR3_Nal) ([3]; inactive hole responses, Day 13, PR3_Nal, CP612 6 hours prior, group mean, n=7): 8.86
D9 IH (avg all) ([3]; inactive hole responses, average of all days D1-D9, mean of CP612 group, n=7): 8.73
D9 IH (avg last 3 days) ([3]; inactive hole responses, average of last 3 days, mean of CP612 group, n=7): 5.52
D10 AH (PR1) Log ([3]; log of active hole responses, Day 10, PR1, CP612 6 hours prior, group mean, n=7): 2.04
D12 AH (PR2_WD) Log ([3]; log of active hole responses, Day 12, PR2 withdrawal, CP612 6 hours prior, group mean, n=6): 1.94
D13 AH (PR3_Nal) Log ([3]; log of active hole responses, Day 13, PR3_Nal, CP612 6 hours prior, group mean, n=7): 1.85
D10 IH (PR1) Log ([3]; log of inactive hole responses, Day 10, PR1, CP612 6 hours prior, group mean, n=7): 1.03
D12 IH (PR2_WD) Log ([3]; log of inactive hole responses, Day 12, PR2 withdrawal, CP612 6 hours prior, group mean, n=6): 0.89
D13 IH (PR3_Nal) Log ([3]; log of inactive hole responses, Day 13, PR3_Nal, CP612 6 hours prior, group mean, n=7): 0.88
D10 Inf (PR1) Log ([3]; log of infusions, Day 10, PR1, CP612 6 hours prior, group mean, n=7): 0.94
D12 Inf (PR2_WD) Log ([3]; log of infusions, Day 12, PR2 withdrawal, CP612 6 hours prior, group mean, n=6): 0.91
D13 Inf (PR3_Nal) Log ([3]; log of infusions, Day 13, PR3_Nal, CP612 6 hours prior, group mean, n=7): 0.85
D12 Inf (PR2_WD) Log ([3]; log of infusions, PR2_WD, day 12, individual rats): 1.04 and 0.85 and 0.90
D10 Latency (PR1) Log ([3]; log of latency, Day 10, PR1, CP612 6 hours prior, group mean, n=7): -0.40
D12 Latency (PR2_WD) Log ([3]; log of latency, Day 12, PR2 withdrawal, CP612 6 hours prior, group mean, n=6): -0.00262
D13 Latency (PR3_Nal) Log ([3]; log of latency, Day 13, PR3_Nal, CP612 6 hours prior, group mean, n=7): -0.48
D2 Inf (FR1) ([3]; morphine infusions, Day 2, fixed ratio 1, mean of CP612 group, n=7): 10.71
D3 Inf (FR1) ([3]; morphine infusions, Day 3, fixed ratio 1, mean of CP612 group, n=7): 10.86
D4 Inf (FR1) ([3]; morphine infusions, Day 4, fixed ratio 1, mean of CP612 group, n=7): 11.00
D4 Inf (FR3) ([3]; morphine infusions, Day 4, fixed ratio 3, mean of CP612 group, n=7): 11.00
D5 Inf (FR3) ([3]; morphine infusions, Day 5, fixed ratio 3, mean of CP612 group, n=7): 6.43
D6 Inf (FR3) ([3]; morphine infusions, Day 6, fixed ratio 3, mean of CP612 group, n=7): 7.14
D7 Inf (FR3) ([3]; morphine infusions, Day 7, fixed ratio 3, mean of CP612 group, n=7): 7.71
D8 Inf (FR3) ([3]; morphine infusions, Day 8, fixed ratio 3, mean of CP612 group, n=7): 9.57
D9 Inf (FR3) ([3]; morphine infusions, Day 9, fixed ratio 3, mean of CP612 group, n=7): 10.29
D10 Inf (PR1) ([3]; morphine infusions, Day 10, progressive ratio test PR1, CP612 6 hours prior, group mean, n=7): 8.86
D12 Inf (PR2_WD) ([3]; morphine infusions, Day 12, progressive ratio test PR2 in withdrawal, CP612 6 hours prior, group mean, n=6): 8.17
D13 Inf (PR3_Nal) ([3]; morphine infusions, Day 13, progressive ratio test PR3_Nal, CP612 6 hours prior, group mean, n=7): 7.29
Inf (avg all) ([3]; morphine infusions, average of all self-administration days D1-D9, mean of CP612 group, n=7): 9.33
Inf (avg last 3 days) ([3]; morphine infusions, average of last 3 days, mean of CP612 group, n=7): 9.19
D12 Inf (PR2_WD) ([3]; morphine infusions, progressive ratio session PR2_WD, day 12, individual rats): 11 and 7 and 8
D1 Inf (FR1) ([3]; morphine infusions, self-administration Day 1, fixed ratio 1, mean of CP612 group, n=7): 10.29
D1 Latency (FR1) ([3]; time to first infusion, Day 1, fixed ratio 1, mean of CP612 group, n=7): 3.00 min
D2 Latency (FR1) ([3]; time to first infusion, Day 2, fixed ratio 1, mean of CP612 group, n=7): 1.98 min
D3 Latency (FR1) ([3]; time to first infusion, Day 3, fixed ratio 1, mean of CP612 group, n=7): 0.73 min
D4 Latency (FR3) ([3]; time to first infusion, Day 4, fixed ratio 3, mean of CP612 group, n=7): 0.44 min
D5 Latency (FR3) ([3]; time to first infusion, Day 5, fixed ratio 3, mean of CP612 group, n=7): 0.20 min
D6 Latency (FR3) ([3]; time to first infusion, Day 6, fixed ratio 3, mean of CP612 group, n=7): 0.53 min
D7 Latency (FR3) ([3]; time to first infusion, Day 7, fixed ratio 3, mean of CP612 group, n=7): 0.53 min
D8 Latency (FR3) ([3]; time to first infusion, Day 8, fixed ratio 3, mean of CP612 group, n=7): 0.46 min
D9 Latency (FR3) ([3]; time to first infusion, Day 9, fixed ratio 3, mean of CP612 group, n=7): 0.44 min
D10 Latency (PR1) ([3]; time to first infusion, Day 10, PR1, CP612 6 hours prior, group mean, n=7): 0.60 min
D12 Latency (PR2_WD) ([3]; time to first infusion, Day 12, PR2 withdrawal, CP612 6 hours prior, group mean, n=6): 1.44 min
D13 Latency (PR3_Nal) ([3]; time to first infusion, Day 13, PR3_Nal, CP612 6 hours prior, group mean, n=7): 0.75 min
D9 Latency (avg all) ([3]; time to first infusion, average of all days D1-D9, mean of CP612 group, n=7): 0.92 min
D9 Latency (avg last 3 days) ([3]; time to first infusion, average of last 3 days, mean of CP612 group, n=7): 0.48 min

— publication PMC12016938, “A small molecule PKCε inhibitor reduces hyperalgesia induced by paclitaxel or opioid withdrawal” (JCI Insight, 2025)
